{
  "source": "paper PMC6680510",
  "about": "“Benzotriazine Di-Oxide Prodrugs for Exploiting Hypoxia and Low Extracellular pH in Tumors” (Molecules, 2019)",
  "key": {"[1]": {"tested_on": "MDCK-II cells with forced expression of BCRP or Pgp", "test": "IC50 under anoxia in cells with forced expression of efflux transporters", "details": "MDCK-II cell lines under anoxia, preliminary experiments", "procedure": "expression of BCRP or Pgp.\nCells were seeded at 300 cells/well in DMEM with 10% FBS in 96 well plates in an\nanaerobic chamber, allowed to attach for 2 h then exposed to drugs for 4 h under anoxia. Cells were\nthen washed with fresh medium and grown for 5 days under aerobic conditions before staining with\nSRB. Values are mean ± SEM from 2 separate experiments."}, "FaDu cells": {"tested_on": "FaDu cells", "test": "IC50 assay (inhibition of proliferation, 4 h exposure, SRB)", "assay_type": "cell-based", "details": "for IC50: Homo sapiens, 4 h", "procedure": "Cells were seeded in 96-well plates (SiHa or FaDu 1500 cells/well, UT-SCC-74B 800 cells/well) in 100 μL. After incubation for 2 h, the drugs were added in 50 μL of the same titrated medium at 3× the final concentration to duplicate the wells. After a further 4 h the plates were checked for drug precipitation using a phase contrast microscope, then drugs were removed by aspirating and washing with the standard (pH 7.4) medium, then aspirating again and adding 150 μL of the medium. Cultures were then grown for 5 days before staining with sulphorhodamine B and measuring absorbance, with the estimation of IC50 values using 4-parameter logistic regression, as previously carried out [85].\nThe medium and plasticware was equilibrated in the chamber for 3 days prior to use. In the anoxia experiments, FaDu cells were plated in poly-L-lysine coated plates (Corning Cat # 356461) to improve attachment."}, "[2]": {"test": "One-electron reduction potentials by pulse radiolysis", "assay_type": "physicochemical", "details": "pH 7.0, equilibrium with redox indicator shown in square brackets", "description": "One-electron reduction potentials (E^0′) were determined from the redox equilibria with methylviologen, MV^2+, (E^0′ = […], [34]), dimethyldiquat, V21^2+, (E^0′ = […], [35]), or triquat, TQ^2+, (E^0′ = −548 ± 7 mV [34]). […] Substituting the 3-alkanoic sidechain with the 3-aminoalkanoic sidechain on the BTO 1,4-dioxide lowers the E^0′, as does the addition of the cyclopentane ring. The combined effect is seen for 10a, where the E^0′ value is −565 mV, which is expected to be too low for significant bioreduction under hypoxia.\n(§1) Time-resolved optical absorption and kinetic studies were carried out using the University of Auckland’s 4 MeV linear accelerator, which has been previously described. The one-electron reduction potentials of the compounds (A) and couple E^0′(A/A^−), versus normal hydrogen electrode, were determined at pH 7.0 (2.5 mM phosphate) by establishing redox equilibria within 50 μs between three mixtures of one-electron reduced A and the viologen reference compounds, MV^2+, TQ^2+ and V21^2+. The determined equilibrium constants were used to calculate the ΔE values using the Nernst equation, correcting for ionic strength effects, as described in the literature."}, "SiHa and SiHa/POR cells": {"tested_on": "SiHa and SiHa/POR cells", "test": "IC50 in SiHa versus SiHa/POR cultures under anoxia", "assay_type": "cell-based", "details": "4 h under anoxia, pHe 7.4", "description": "The lack of effect of POR over-expression on the reductive metabolism of the BTO acids in intact cells led us to compare the cytotoxicities of SN30000 (2), 4a, and 7a in SiHa/POR, and the parental line, under anoxia (Figure 6).\nDrug exposure was for 4 h under anoxia, at pHe 7.4, with regrowth under aerobic conditions for 5 days before staining with SRB. Values are means and SEM for the two experiments, each with triplicate cultures at each drug concentration. TEXT PRINTED IN THE PICTURE: Cmpd 2: Ratio 6.75 ± 0.20 | Cmpd 4a: Ratio 3.40 ± 0.22 | Cmpd 7a: Ratio 2.67 ± 0.46"}, "[3]": {"test": "Solubility in AlphaMEM + 5% FBS, pH 7.4", "details": "culture medium (AlphaMEM + 5% FBS), pH 7.4, plasma or biological fluid, thermodynamic from solid"}, "SiHa cells [4]": {"tested_on": "SiHa cells", "test": "Cellular uptake in stirred aerobic single cell suspensions (HPLC, 3H-mannitol correction)", "details": "for Observed Ci/Ce ratio: SiHa", "procedure": "In these experiments, cell pellets were collected by centrifugation and ^3H-mannitol was used as a cell-excluded marker to enable correction for the entrapped extracellular medium.\nLog-phase cultures were dissociated with trypsin/EDTA, followed by the addition of the medium with DNAase I (Sigma DN-25) at 100 μg/mL for 5 min at 37 °C to minimize clumping. The cell pellets were collected by centrifugation and resuspended in αMEM with 5% FBS at pH 7.4 or 6.5 to 2 × 10^6 cells/mL. Samples (12 mL) were equilibrated with magnetic stirring at 37 °C under flowing humidified 5% CO2/air or N2 (50–100 mL/min), as previously described [86]. After equilibration for 60 min, the compounds were added in 50 μL of DMSO. The samples (5 mL) were withdrawn 5 and 60 min later, where the cell pellets were then collected by centrifugation and 4 mL of the supernatant was discarded. The pellets were resuspended in the remaining 1 mL, transferred to microcentrifuge tubes containing 7 μL ^3H-mannitol (740 GBq/mmol, American Radiolabeled Chemicals Inc., St. Louis, MO) as an extracellular marker, and then centrifuged (11,000g × 30s). The supernatant was removed and frozen at −80 °C (extracellular samples) and the tubes were centrifuged again, and any remaining medium was carefully removed. Ice-cold MeOH (80 μL) was added to the pellets which were disrupted by pipetting and stored at −80 °C (intracellular samples). When these were thawed for HPLC analysis (Section 4.12), the volume of extracellular water trapped in the pellets was determined by the scintillation counting (PerkinElmer Tri-Carb B2910TR Liquid Scintillation) of 25 μL of each extracellular and intracellular sample in 3 mL of Emulsifier-Safe™ scintillation cocktail (PerkinElmer). The extracellular volume in each intracellular sample was used to correct the intracellular drug concentration as previously described [87].\nThe samples were analyzed using an Agilent 1200 HPLC with a diode array absorbance detector and autosampler maintained at 4 °C (Agilent Technologies). The frozen samples were thawed, then centrifuged (11,000g × 5 min), and then extracellular samples were injected directly (typically 20 μL), while for the intracellular samples 30 μL was mixed 1:1 with αMEM and 50 μL was injected. […] All calibration curves were linear (R^2 > 0.999). The column was an Agilent ZORBAX Eclipse (XDB-C18, 5u, 2.1 × 150 mm, Agilent Technologies) with a flow rate of 0.4 mL/min. For SN30000 (2), the mobile phase was a mixture of 80% MeCN/water v/v (A), and a 45 mM formate buffer at a pH 4.5, eluting with a linear gradient of 5–100% A over 18 min. The same method was used for the BTO acids, except for 4a, where the aqueous mobile phase pH was reduced to 3.5.\nValues are mean and SEM for 3 replicates. ND: Not detected."}, "[5]": {"test": "Measured pKa (potentiometric titration)"}, "[6]": {"test": "Protein binding by equilibrium dialysis (FBS, culture medium)", "assay_type": "in vitro ADME", "procedure": "Protein binding of 7a in plasma from NIHIII mice and fetal bovine serum (FBS) assessed\nby equilibrium dialysis using a 12-14KDa cut-off dialysis membrane (HTDialysis, Gales Ferry, CT) as\nBriefly, 100 µL samples of undiluted plasma,\nplasma diluted in PBS, and αMEM with or without FBS containing 7a at 100 μM were dialysed against\n100 µL PBS or αMEM (pH 7.4) in an incubator (Innova-42, New Brunswick Scientific, US ) at 37°C\nwith shaking at 80 rpm for 6 h. Proteins were precipitated with 3 vol of ice-cold MeCN, the"}, "SiHa cells [7]": {"tested_on": "SiHa cells", "test": "IC50 assay (inhibition of proliferation, 4 h exposure, SRB)", "details": "SiHa; for IC50: Homo sapiens, 4 h", "in_short": "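Cells exposed to compound for 4 h in titrated medium, then washed and regrown 5 days under standard conditions (oxia, pHe 7.4). Growth read by sulforhodamine B staining; IC50 from 4-parameter logistic regression of duplicate cultures.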"}, "[8]": {"test": "Pulse radiolysis of the radical anion (pKa, decay and oxidation kinetics)", "assay_type": "physicochemical", "description": "The free radical chemistry of 7a was investigated by pulse radiolysis and electron paramagnetic resonance (EPR). […] The radical anion decayed slowly under anoxia at pH 7 with mixed kinetics (first-order rate constant of 78 ± 4 s^−1, second-order rate constant of 3.8 ± 0.7 × 10^7 M^−1 s^−1, Figure S3), broadly similar to SN30000 [24]. The second-order rate constant for oxidation of the radical anion of 7a by O2, 5.39 ± 0.40 × 10^6 M^−1 s^−1 (Figure S4), is consistent with the known dependence on E^0′ for BTOs.\nas §1\nMolecules 2019, 24, x FOR PEER REVIEW 3 of 8\nFigure S2. Effect of pH on the change in radical absorption at 490 nm upon one-electron reduction of 7a ([…]) by the CO2.- radical anion following pulse radiolysis (3 Gy in 200 ns) of N2O-saturated solutions containing sodium formate (0.1 M) and buffers (10 mM). Data points, obtained ca. 20 ms […]\nFigure S3. […]\ndependence on increasing radiation dose (radical concentration) of the reciprocal of the first half-life of decay of the radical anion of 7a measured at 490 nm. […]\nFigure S4. Dependence of the first-order rate constant measured at 490 nm for the decay of the radical anion of 7a at pH 7.0, k, on the concentration of O2 in solution following pulse radiolysis (10 Gy in 200 ns). […] The second order rate constant, kO2, calculated from the gradient"}},
  "note": "Where “and” joins values, the source holds several entries; their conditions need not be identical. Equal values may be shown once. Read-outs that look alike come from different tables or passages of the source.",
  "data": [
    {"smiles": "O=C(O)CCc1n[n+]([O-])c2cc3c(cc2[n+]1[O-])CCC3", "note": "[Compound 7a, 3-(2-Carboxyethyl)-7,8-dihydro-6H-indeno[5,6-e][1,2,4]triazine 1,4-Dioxide]", "values": [
      {"measurement": "Effect of overexpression of BCRP or Pgp efflux transporters on sensitivity", "setting": "[1]", "result": "no effect"},
      {"measurement": "TMR (oxic IC50 pHe 7.4/anoxic IC50 pHe 6.5)", "setting": "FaDu cells", "result": ">7.9"},
      {"measurement": "IC50", "setting": "FaDu cells; pHe 6.5, 4 h, anoxic, read-out: Anoxic IC50", "result": "0.885 ± 0.515", "unit": "mM"},
      {"measurement": "IC50", "setting": "FaDu cells; pHe 6.5, 4 h, oxic, read-out: Oxic IC50", "result": "4.91 ± 1.6", "unit": "mM"},
      {"measurement": "IC50", "setting": "FaDu cells; pHe 7.4, 4 h, anoxic, read-out: Anoxic IC50", "result": "3.26 ± 1.07", "unit": "mM"},
      {"measurement": "IC50", "setting": "FaDu cells; pHe 7.4, 4 h, oxic, read-out: Oxic IC50", "result": "> 7", "unit": "mM"},
      {"measurement": "PCR oxic (IC50 at pHe 7.4/IC50 at pHe 6.5)", "setting": "FaDu cells; oxic", "result": ">1.4"},
      {"measurement": "ACR (oxic IC50/anoxic IC50)", "setting": "FaDu cells; pHe 6.5", "result": "5.55 ± 3.70"},
      {"measurement": "ACR (oxic IC50/anoxic IC50)", "setting": "FaDu cells; pHe 7.4", "result": "> 2"},
      {"measurement": "E^0′ one-electron reduction potential", "setting": "[2]", "result": "−463 mV and −463 ± 8 [MV^2+, V21^2+] mV"},
      {"measurement": "IC50 ratio SiHa / SiHa/POR (fold lower IC50 in POR cell line)", "setting": "SiHa and SiHa/POR cells", "result": "2.67 ± 0.46 and 2.7"},
      {"measurement": "solubility", "setting": "[3]", "result": 24.8, "unit": "mM"},
      {"measurement": "Observed Ci/Ce ratio", "setting": "SiHa cells [4]; pHe 6.5, approximate value quoted in text", "result": "~ 0.7"},
      {"measurement": "Observed Ci/Ce ratio", "setting": "SiHa cells [4]; pHe 7.4, approximate value quoted in text", "result": "~ 0.1"},
      {"measurement": "Ci ratio (Ci at pHe 6.5/Ci at pHe 7.4)", "setting": "SiHa cells [4]; aerobic SiHa suspensions, 5 min", "result": "3.9 ± 1.3", "unit": "fold"},
      {"measurement": "Ci/Ce, pHe 6.5 Obs 5 min", "setting": "SiHa cells [4]; aerobic SiHa suspensions, pHe 6.5, 5 min", "result": "0.70 ± 0.03"},
      {"measurement": "Ci/Ce, pHe 6.5 Obs 60 min", "setting": "SiHa cells [4]; aerobic SiHa suspensions, pHe 6.5, 60 min", "result": "0.75 ± 0.03"},
      {"measurement": "Ci/Ce, pHe 7.4 Obs 5 min", "setting": "SiHa cells [4]; aerobic SiHa suspensions, pHe 7.4, 5 min", "result": "0.21 ± 0.08"},
      {"measurement": "Ci/Ce, pHe 7.4 Obs 60 min", "setting": "SiHa cells [4]; aerobic SiHa suspensions, pHe 7.4, 60 min", "result": "<0.1"},
      {"measurement": "pKa", "setting": "[5]", "result": 4.16},
      {"measurement": "Protein binding in culture medium with 5 or 10% FBS", "setting": "[6]; 100 μM", "result": "not detectable"},
      {"measurement": "fraction unbound at 6 h, 100 µM", "setting": "[6]; bovine, fetal bovine serum (FBS), pH 7.4, FBS, read-out: Protein binding (bound) in FBS (converted)", "result": 0.38},
      {"measurement": "IC50", "setting": "SiHa cells [7]; read-out: Anoxic IC50, SiHa, pHe 6.5, 4 h, anoxic", "result": "0.428 ± 0.152", "unit": "mM"},
      {"measurement": "IC50", "setting": "SiHa cells [7]; read-out: Anoxic IC50, SiHa, pHe 7.4, 4 h, anoxic", "result": "0.864 ± 0.277", "unit": "mM"},
      {"measurement": "IC50", "setting": "SiHa cells [7]; read-out: Oxic IC50, SiHa, pHe 6.5, 4 h, oxic", "result": "1.89 ± 0.308", "unit": "mM"},
      {"measurement": "IC50", "setting": "SiHa cells [7]; read-out: Oxic IC50, SiHa, pHe 7.4, 4 h, oxic", "result": "3.72 ± 0.83", "unit": "mM"},
      {"measurement": "TMR (overall TME ratio = oxic IC50 pHe 7.4/anoxic IC50 pHe 6.5)", "setting": "SiHa cells [7]", "result": "8.7 ± 3.6"},
      {"measurement": "PCR Anoxic (IC50 at pHe 7.4/IC50 at pHe 6.5)", "setting": "SiHa cells [7]; anoxic", "result": "2.02 ± 0.97"},
      {"measurement": "PCR oxic (IC50 at pHe 7.4/IC50 at pHe 6.5)", "setting": "SiHa cells [7]; oxic", "result": "1.97 ± 0.55"},
      {"measurement": "ACR (anoxic cytotoxicity ratio = oxic IC50/anoxic IC50)", "setting": "SiHa cells [7]; pHe 6.5", "result": "4.41 ± 1.73"},
      {"measurement": "ACR (anoxic cytotoxicity ratio = oxic IC50/anoxic IC50)", "setting": "SiHa cells [7]; pHe 7.4", "result": "4.31 ± 1.58"},
      {"measurement": "First-order rate constant of radical anion decay", "setting": "[8]; anoxia, pH 7", "result": "78 ± 4", "unit": "s⁻¹"},
      {"measurement": "Second-order rate constant of radical anion decay", "setting": "[8]; anoxia, pH 7", "result": "3.8 ± 0.7 × 10^7 M^−1 s^−1"},
      {"measurement": "Second-order rate constant for oxidation of the radical anion by O2", "setting": "[8]; pH 7.0", "result": "5.39 ± 0.40 × 10^6 M^−1 s^−1"}
    ]}
  ]
}
